Experimental data published in ChEMBL document CHEMBL1154536, “Optimization of 4,6-bis-anilino-1H-pyrrolo[2,3-d]pyrimidine IGF-1R tyrosine kinase inhibitors towards JNK selectivity” (Bioorg Med Chem Lett, 2009).

How the values were obtained:
[1] = target: T1, Insulin-like growth factor 1 receptor (Homo sapiens, UniProt P08069); assay: Inhibition of IGF-1R
[2] = target: Mitogen-activated protein kinase 8 (Homo sapiens, UniProt P45983); assay: Inhibition of His-tagged JNK1
[3] = target: T1, Insulin-like growth factor 1 receptor; assay: Inhibition of phospho IGFR1 by cellular assay
[4] = Clearance in rat at 2.5 mg/kg, iv and […] mg/kg, po; assay type: ADME, organism-based; settings: in vivo
Rattus norvegicus [5] = assay: Dose normalized AUC (0 to 8 hrs) in rat at 13 mg/kg, po; assay type: ADME, organism-based; set-up: time < 8 hr, dose 13 mg/kg, route oral; settings: in vivo
[6] = Cmax in rat at 13 mg/kg, po; assay type: ADME, organism-based; set-up: dose 13 mg/kg, route oral; settings: in vivo
[7] = Oral bioavailability in rat at 13 mg/kg, po; assay type: ADME, organism-based; settings: in vivo
[8] = Clearance in rat at 2.6 mg/kg, iv and […] mg/kg, po; assay type: ADME, organism-based; settings: in vivo
[9] = target: T1, Insulin-like growth factor 1 receptor; assay: Inhibition of phospho IGFR1 by cellular assay in presence of 2%HSA
[10] = Clearance in rat at 2.5 mg/kg, iv and 10 mg/kg, po; assay type: ADME, organism-based; settings: in vivo
Rattus norvegicus [11] = assay: Dose normalized AUC (0 to 8 hrs) in rat at 10 mg/kg, po; assay type: ADME, organism-based; set-up: time < 8 hr, dose 10 mg/kg, route oral; settings: in vivo
[12] = Cmax in rat at 10 mg/kg, po; assay type: ADME, organism-based; set-up: dose 10 mg/kg, route oral; settings: in vivo
[13] = Oral bioavailability in rat at 10 mg/kg, po; assay type: ADME, organism-based; settings: in vivo
[14] = target: Mitogen-activated protein kinase 10 (Homo sapiens, UniProt P53779); assay: Inhibition of human His-tagged JNK3
Chain of Mitogen-activated protein kinase 10 (P53779 whole entry): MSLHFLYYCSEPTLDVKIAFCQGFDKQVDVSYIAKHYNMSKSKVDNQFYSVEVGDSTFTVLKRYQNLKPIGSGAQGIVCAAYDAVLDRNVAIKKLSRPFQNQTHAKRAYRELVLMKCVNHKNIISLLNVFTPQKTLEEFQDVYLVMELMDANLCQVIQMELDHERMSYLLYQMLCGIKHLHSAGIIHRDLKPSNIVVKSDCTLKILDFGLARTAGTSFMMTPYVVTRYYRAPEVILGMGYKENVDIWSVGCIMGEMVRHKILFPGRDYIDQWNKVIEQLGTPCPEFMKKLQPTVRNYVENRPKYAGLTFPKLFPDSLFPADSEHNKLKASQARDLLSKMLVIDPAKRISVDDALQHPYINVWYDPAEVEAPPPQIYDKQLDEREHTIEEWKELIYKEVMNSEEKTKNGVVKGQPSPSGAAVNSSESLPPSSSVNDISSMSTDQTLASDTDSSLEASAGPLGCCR

[15] = target: ALK tyrosine kinase receptor (Homo sapiens, UniProt Q9UM73); assay: Inhibition of ALK
Insulin receptor = Insulin receptor (Homo sapiens, UniProt P06213); assay: Inhibition of IR
Chain of Insulin receptor (P06213 28-758 limits assumed): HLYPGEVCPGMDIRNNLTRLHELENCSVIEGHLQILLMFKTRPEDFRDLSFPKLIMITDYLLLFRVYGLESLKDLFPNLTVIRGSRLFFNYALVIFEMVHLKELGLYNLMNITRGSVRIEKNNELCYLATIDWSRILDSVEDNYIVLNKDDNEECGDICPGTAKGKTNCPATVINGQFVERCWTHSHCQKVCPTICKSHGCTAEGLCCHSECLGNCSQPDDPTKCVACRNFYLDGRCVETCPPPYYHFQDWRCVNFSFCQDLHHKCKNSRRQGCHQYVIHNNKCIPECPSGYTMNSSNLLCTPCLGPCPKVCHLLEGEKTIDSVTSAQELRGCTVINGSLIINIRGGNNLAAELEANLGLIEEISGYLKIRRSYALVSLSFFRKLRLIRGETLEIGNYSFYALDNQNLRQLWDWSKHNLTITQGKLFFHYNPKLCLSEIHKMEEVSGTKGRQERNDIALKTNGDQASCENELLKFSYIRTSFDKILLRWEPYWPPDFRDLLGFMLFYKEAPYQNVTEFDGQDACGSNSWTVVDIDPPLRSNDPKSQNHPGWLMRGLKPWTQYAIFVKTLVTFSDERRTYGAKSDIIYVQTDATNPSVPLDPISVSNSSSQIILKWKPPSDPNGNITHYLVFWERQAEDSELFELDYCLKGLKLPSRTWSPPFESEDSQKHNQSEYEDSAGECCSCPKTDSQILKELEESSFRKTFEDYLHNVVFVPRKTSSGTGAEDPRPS
Chain of Insulin receptor (P06213 763-1382 limits assumed): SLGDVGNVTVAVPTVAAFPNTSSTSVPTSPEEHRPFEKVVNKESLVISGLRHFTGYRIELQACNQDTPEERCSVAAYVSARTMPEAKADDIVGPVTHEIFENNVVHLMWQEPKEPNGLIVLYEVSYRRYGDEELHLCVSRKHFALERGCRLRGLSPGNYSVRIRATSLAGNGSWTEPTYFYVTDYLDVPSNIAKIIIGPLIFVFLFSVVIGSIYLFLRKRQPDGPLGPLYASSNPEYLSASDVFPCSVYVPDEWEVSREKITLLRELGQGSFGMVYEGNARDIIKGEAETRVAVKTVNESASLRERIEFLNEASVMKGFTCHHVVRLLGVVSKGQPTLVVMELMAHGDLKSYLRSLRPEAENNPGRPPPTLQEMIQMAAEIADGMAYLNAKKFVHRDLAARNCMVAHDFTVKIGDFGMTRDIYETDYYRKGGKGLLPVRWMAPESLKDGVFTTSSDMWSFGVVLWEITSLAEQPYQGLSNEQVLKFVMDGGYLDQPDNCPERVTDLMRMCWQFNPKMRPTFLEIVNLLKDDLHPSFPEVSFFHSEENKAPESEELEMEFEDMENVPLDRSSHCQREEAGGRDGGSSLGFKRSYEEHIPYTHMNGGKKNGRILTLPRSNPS

Rattus norvegicus [16] = assay: Dose normalized AUC (0 to 8 hrs) in rat at 9 mg/kg, po; assay type: ADME, organism-based; set-up: time < 8 hr, dose 9 mg/kg, route oral; settings: in vivo
[17] = Cmax in rat at 9 mg/kg, po; assay type: ADME, organism-based; set-up: dose 9 mg/kg, route oral; settings: in vivo

T1 sequence (P08069 31-736 limits assumed): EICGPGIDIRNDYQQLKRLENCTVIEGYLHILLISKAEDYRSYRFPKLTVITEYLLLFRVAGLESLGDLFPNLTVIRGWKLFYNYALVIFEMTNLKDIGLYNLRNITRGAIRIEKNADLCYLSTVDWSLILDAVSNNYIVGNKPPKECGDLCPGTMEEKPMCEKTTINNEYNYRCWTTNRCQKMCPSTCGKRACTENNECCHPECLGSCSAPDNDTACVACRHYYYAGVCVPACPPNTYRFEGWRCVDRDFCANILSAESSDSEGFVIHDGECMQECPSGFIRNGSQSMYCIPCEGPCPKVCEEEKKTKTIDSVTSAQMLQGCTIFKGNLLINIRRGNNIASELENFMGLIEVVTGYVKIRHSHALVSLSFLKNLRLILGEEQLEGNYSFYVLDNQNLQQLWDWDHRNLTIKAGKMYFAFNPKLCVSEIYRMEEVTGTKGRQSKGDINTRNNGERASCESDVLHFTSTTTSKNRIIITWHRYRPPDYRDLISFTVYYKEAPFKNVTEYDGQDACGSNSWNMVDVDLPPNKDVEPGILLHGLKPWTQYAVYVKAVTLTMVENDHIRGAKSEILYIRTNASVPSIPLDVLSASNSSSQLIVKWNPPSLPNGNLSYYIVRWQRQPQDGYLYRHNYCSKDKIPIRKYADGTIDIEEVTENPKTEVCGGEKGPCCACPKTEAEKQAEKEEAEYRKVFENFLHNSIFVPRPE
T1 sequence (P08069 741-1367 limits assumed): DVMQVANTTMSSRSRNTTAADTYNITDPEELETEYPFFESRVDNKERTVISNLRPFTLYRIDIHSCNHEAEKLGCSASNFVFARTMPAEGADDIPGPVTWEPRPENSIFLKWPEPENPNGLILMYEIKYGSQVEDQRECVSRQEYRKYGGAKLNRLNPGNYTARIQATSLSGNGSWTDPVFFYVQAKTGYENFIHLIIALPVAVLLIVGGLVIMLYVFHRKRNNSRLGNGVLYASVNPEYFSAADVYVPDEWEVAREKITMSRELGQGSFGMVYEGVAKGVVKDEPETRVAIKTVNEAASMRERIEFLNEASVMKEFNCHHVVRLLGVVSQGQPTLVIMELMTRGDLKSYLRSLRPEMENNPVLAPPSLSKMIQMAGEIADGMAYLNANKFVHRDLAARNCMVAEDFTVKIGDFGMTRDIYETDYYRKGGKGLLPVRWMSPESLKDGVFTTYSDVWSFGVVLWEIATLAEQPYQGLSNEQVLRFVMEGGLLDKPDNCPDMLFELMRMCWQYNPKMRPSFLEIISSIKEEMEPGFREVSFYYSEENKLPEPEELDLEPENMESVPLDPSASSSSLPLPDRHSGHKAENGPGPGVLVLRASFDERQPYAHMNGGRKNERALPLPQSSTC
Chain of Mitogen-activated protein kinase 8 (P45983 whole entry): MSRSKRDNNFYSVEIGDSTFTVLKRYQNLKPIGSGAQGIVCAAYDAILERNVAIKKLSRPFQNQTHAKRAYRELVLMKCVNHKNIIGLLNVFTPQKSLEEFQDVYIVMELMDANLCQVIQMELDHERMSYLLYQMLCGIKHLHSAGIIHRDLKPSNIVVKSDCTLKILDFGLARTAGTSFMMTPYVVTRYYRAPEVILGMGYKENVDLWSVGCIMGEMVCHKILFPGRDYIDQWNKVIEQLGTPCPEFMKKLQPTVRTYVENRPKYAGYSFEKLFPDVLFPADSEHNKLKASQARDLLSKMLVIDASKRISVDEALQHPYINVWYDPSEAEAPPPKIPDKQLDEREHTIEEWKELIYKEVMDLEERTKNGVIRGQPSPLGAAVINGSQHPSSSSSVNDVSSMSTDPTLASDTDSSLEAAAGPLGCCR

Row | Structure (SMILES) | IC50 [1] | IC50 [2] | IC50 [3] | also measured
1 | COc1cc2c(cc1Nc1nc(Nc3cccc(F)c3C(N)=O)c3cc[nH]c3n1)N(C(=O)CCN1CCN(C(C)C)CC1)CC2 | 0.004 µM | 1.59 µM | 0.651 µM | 
2 | COc1cc2c(cc1Nc1nc(Nc3cccc(F)c3C(N)=O)c3cc[nH]c3n1)N(C(C)=O)CCC2 | 0.025 µM | 7.94 µM | 1.98 µM | 
3 | CNCC(=O)N1CCc2cc(OC)c(Nc3nc(Nc4cccc(F)c4C(N)=O)c4cc[nH]c4n3)cc21 | 0.002 µM | 2 µM | 0.079 µM | 
4 | COc1ccc(CCCN(C)C)cc1Nc1nc(Nc2cccc(F)c2C(N)=O)c2cc[nH]c2n1 | 0.013 µM | 5.01 µM | 0.212 µM | 
5 | COc1cc2c(cc1Nc1nc(Nc3cccc(F)c3C(N)=O)c3cc[nH]c3n1)N(C(=O)CN(C)C)CC2 |  | 1.59 µM | 0.056 µM | clearance [8]: 2.88 L/h/kg; AUC (Rattus norvegicus [5]): 190 ng·h/mL/mg/kg; Cmax [6]: 0.455 µg/mL; bioavailability [7]: 61%; IC50 [9]: 0.487 µM
6 | CCN(C)CC(=O)N1CCc2cc(OC)c(Nc3nc(Nc4cccc(F)c4C(N)=O)c4cc[nH]c4n3)cc21 | 0.003 µM | 3.16 µM | 0.019 µM | 
7 | CNC(=O)c1c(F)cccc1Nc1nc(Nc2cc3c(cc2OC)CCN3C(=O)CN(C)C)nc2[nH]ccc12 |  |  |  | clearance [10]: 4.38 L/h/kg; AUC (Rattus norvegicus [11]): 210 ng·h/mL/mg/kg; Cmax [12]: 0.365 µg/mL; bioavailability [13]: 98%
8 | COc1cc2c(cc1Nc1nc(Nc3cccc(F)c3C(N)=O)c3cc[nH]c3n1)N(C(=O)CN1CCC1)CC2 | 0.001 µM | 2 µM | 0.128 µM | 
9 | COc1cc(C)c(N2CCN(C(C)C)CC2)cc1Nc1nc(Nc2cccc(F)c2C(N)=O)c2cc[nH]c2n1 |  | 3.89 µM |  | IC50 [14]: 6.31 µM
10 | COc1cc2c(cc1Nc1nc(Nc3cccc(F)c3C(N)=O)c3cc[nH]c3n1)N(C(=O)CCN(C)C)CCC2 | 0.01 µM | 7.94 µM | 0.209 µM | 
11 | COc1cc2c(cc1Nc1nc(Nc3cccc(F)c3C(N)=O)c3cc[nH]c3n1)N(C(=O)CN1CCCCC1)CCC2 | 0.001 µM | 2.51 µM | 0.011 µM | 
12 | COc1ccc(N(C)C(=O)CN(C)C)cc1Nc1nc(Nc2cccc(F)c2C(N)=O)c2cc[nH]c2n1 | 0.05 µM | 10 µM | 0.377 µM | 
13 | COc1ccc(NC(=O)CN(C)C)cc1Nc1nc(Nc2cccc(F)c2C(N)=O)c2cc[nH]c2n1 | 0.001 µM | 3.16 µM | 0.028 µM | 
14 | COc1ccc(N2CCN(C(C)C)CC2)cc1Nc1nc(Nc2cccc(F)c2C(N)=O)c2cc[nH]c2n1 |  | 3.16 µM | 0.201 µM | IC50 [14]: 5.01 µM; AUC (Rattus norvegicus [16]): 133 ng·h/mL/mg/kg; Cmax [17]: 0.233 µg/mL
15 | COc1cc2c(cc1Nc1nc(Nc3cccc(F)c3C(N)=O)c3cc[nH]c3n1)N(C(=O)CN(C)C)CCC2 | 0.001 µM | 6.31 µM | 0.016 µM | 
16 | COc1cc2c(cc1Nc1nc(Nc3cccc(F)c3C(N)=O)c3cc[nH]c3n1)N(C(=O)CN1CCCC1)CC2 | 0.001 µM | 1.26 µM | 0.024 µM | 
17 | CCCN1CCC(Oc2cc(Nc3nc(Nc4cccc(F)c4C(N)=O)c4cc[nH]c4n3)c(OC)cc2Cl)CC1 [GSK-1713088A] | 0.025 µM | 3.98 µM | 5.37 µM | 
18 | COc1cc2c(cc1Nc1nc(Nc3cccc(F)c3C(N)=O)c3cc[nH]c3n1)N(C(=O)CN1CCN(C(C)C)CC1)CC2 [GSK-1751853A] | 0.032 µM | 1.59 µM | 0.376 µM | 
19 | COc1cc(C)c(NC(=O)CN(C)C)cc1Nc1nc(Nc2cccc(F)c2C(N)=O)c2cc[nH]c2n1 [GSK-2213727A] | 0.0005 µM | 2 µM | 0.038 µM | 
20 | COc1cc(C)c(N(C)C(=O)CN(C)C)cc1Nc1nc(Nc2cccc(F)c2C(N)=O)c2cc[nH]c2n1 [GSK-2219385A] | 0.063 µM | 10 µM | 1.73 µM | 

Continued, in another order:

Row | IC50 [1] | IC50 [2] | IC50 [3] | Structure (SMILES) | also measured
21 | 0.008 µM | 0.631 µM | 0.081 µM | COc1ccc(OCCCN(C)C)cc1Nc1nc(Nc2cccc(F)c2C(N)=O)c2cc[nH]c2n1 | clearance [4]: 6.72 L/h/kg; AUC (Rattus norvegicus [5]): 85 ng·h/mL/mg/kg; Cmax [6]: 0.192 µg/mL; bioavailability [7]: 60%
22 | 0.006 µM | 0.126 µM | 0.278 µM | COc1cc2c(cc1Nc1nc(Nc3cccc(F)c3C(N)=O)c3cc[nH]c3n1)N(C(C)=O)CC2 | 
23 | 0.04 µM | 0.1 µM | 0.794 µM | COc1cc2c(cc1Nc1nc(Nc3cccc(F)c3C(N)=O)c3cc[nH]c3n1)N(CCN(C)C)CC2 | 
24 | 0.006 µM | 1.26 µM | 0.929 µM | CCCN1CCC(Oc2ccc(OC)c(Nc3nc(Nc4cccc(F)c4C(N)=O)c4cc[nH]c4n3)c2)CC1 | 
25 | 0.05 µM | 0.794 µM | 0.877 µM | COc1cc2c(cc1Nc1nc(Nc3cccc(F)c3C(N)=O)c3cc[nH]c3n1)N(C(=O)CN(C)OC)CC2 | 
26 | 0.002 µM | 1 µM | 0.085 µM | CCN(CC)CC(=O)N1CCc2cc(OC)c(Nc3nc(Nc4cccc(F)c4C(N)=O)c4cc[nH]c4n3)cc21 | 
27 | 0.032 µM | 0.631 µM | 7.76 µM | COc1cc2c(cc1Nc1nc(Nc3cccc(F)c3C(N)=O)c3cc[nH]c3n1)N(C(=O)Cn1ccnc1)CC2 | 
28 | 0.013 µM | 0.126 µM | 0.072 µM | COc1cc2c(cc1Nc1nc(Nc3cccc(F)c3C(N)=O)c3cc[nH]c3n1)N(C(=O)CN1CCOCC1)CC2 | 
29 |  | 0.013 µM |  | COc1cc(N2CCN(C(C)C)CC2)ccc1Nc1nc(Nc2cccc(F)c2C(N)=O)c2cc[nH]c2n1 | IC50 [15]: 0.0005 µM; IC50 (Insulin receptor): 0.0016 µM; IC50 [14]: 0.1 µM
30 | 0.006 µM | 0.251 µM | 0.298 µM | COc1cc2c(cc1Nc1nc(Nc3cccc(F)c3C(N)=O)c3cc[nH]c3n1)N(C(=O)CCN1CCOCC1)CC2 | 
31 | 0.013 µM | 0.501 µM | 0.84 µM | COc1cc(C)c(CCCN(C)C)cc1Nc1nc(Nc2cccc(F)c2C(N)=O)c2cc[nH]c2n1 | 
32 | 0.008 µM | 0.794 µM | 0.191 µM | COc1cc2c(cc1Nc1nc(Nc3cccc(F)c3C(N)=O)c3cc[nH]c3n1)N(C(=O)CCN(C)C)CC2 | 
33 | 0.004 µM | 1 µM | 0.765 µM | COc1cc2c(cc1Nc1nc(Nc3cccc(F)c3C(N)=O)c3cc[nH]c3n1)N(C(=O)CN)CC2 | 
34 | 0.013 µM | 1.26 µM | 0.895 µM | COc1cc(Cl)c(OCCCN(C)C)cc1Nc1nc(Nc2cccc(F)c2C(N)=O)c2cc[nH]c2n1 | 
